The source of these data is patent US20260217767A1, “NOVEL A4B7 THIOETHER PEPTIDE DIMER ANTAGONISTS” (Protagonist Therapeutics, Inc., priority 2014, published 2026).

Data set [1] in a line: Simulated Intestinal Fluid (SIF) Stability Assay. It is filed as in vitro ADME. The following applies: 37° C., dimers, Table 7; for half-life at 22 μM / half-life: pig; for half-life at 22 μM: simulated intestinal fluid (SIF) with 1% porcine pancreatin, pH 6.5, porcine pancreatin; for SIF (Porcine) (half-life, min) / half-life: porcine pancreatin. The method in brief:
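Peptide at 22 μM final was incubated at 37° C in blank FaSSIF pH 6.5 with 1% porcine pancreatin. Timed samples were quenched in acetonitrile/methanol/formic acid with internal standard and analysed by LC-MS/MS. Half-lives came from first-order exponential fits of percent remaining.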

The target of data set [2] is T1, rh integrin α4β7 (Homo sapiens, UniProt P13612+P26010).
T1 construct: purchased R&D Systems 5397-A30
T1 sequence (P13612 34-977 limits assumed): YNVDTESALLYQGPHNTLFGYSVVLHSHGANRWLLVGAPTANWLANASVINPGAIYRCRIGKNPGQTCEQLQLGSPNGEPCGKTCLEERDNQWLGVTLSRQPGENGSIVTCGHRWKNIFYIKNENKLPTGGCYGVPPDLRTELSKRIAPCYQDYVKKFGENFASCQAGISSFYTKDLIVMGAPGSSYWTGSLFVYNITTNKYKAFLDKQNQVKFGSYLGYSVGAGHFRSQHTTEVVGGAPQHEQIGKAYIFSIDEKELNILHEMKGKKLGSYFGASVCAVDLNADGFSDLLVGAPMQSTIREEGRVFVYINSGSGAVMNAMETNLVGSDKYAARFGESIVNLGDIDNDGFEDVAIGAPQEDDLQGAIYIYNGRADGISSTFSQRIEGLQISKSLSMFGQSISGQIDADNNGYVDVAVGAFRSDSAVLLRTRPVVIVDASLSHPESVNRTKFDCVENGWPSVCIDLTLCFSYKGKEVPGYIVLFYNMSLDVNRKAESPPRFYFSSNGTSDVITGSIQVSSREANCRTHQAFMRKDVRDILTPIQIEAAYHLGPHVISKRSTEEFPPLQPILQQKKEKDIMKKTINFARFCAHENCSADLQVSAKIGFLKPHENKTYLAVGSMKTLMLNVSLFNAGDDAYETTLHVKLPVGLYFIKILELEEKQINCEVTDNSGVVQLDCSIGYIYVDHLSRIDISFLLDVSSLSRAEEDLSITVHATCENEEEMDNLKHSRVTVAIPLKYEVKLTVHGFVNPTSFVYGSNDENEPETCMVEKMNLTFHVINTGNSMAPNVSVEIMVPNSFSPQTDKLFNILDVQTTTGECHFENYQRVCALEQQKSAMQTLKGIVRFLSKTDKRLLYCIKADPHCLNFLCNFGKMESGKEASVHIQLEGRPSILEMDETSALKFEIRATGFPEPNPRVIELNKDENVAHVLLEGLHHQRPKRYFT
T1 sequence (P26010 20-723 limits assumed): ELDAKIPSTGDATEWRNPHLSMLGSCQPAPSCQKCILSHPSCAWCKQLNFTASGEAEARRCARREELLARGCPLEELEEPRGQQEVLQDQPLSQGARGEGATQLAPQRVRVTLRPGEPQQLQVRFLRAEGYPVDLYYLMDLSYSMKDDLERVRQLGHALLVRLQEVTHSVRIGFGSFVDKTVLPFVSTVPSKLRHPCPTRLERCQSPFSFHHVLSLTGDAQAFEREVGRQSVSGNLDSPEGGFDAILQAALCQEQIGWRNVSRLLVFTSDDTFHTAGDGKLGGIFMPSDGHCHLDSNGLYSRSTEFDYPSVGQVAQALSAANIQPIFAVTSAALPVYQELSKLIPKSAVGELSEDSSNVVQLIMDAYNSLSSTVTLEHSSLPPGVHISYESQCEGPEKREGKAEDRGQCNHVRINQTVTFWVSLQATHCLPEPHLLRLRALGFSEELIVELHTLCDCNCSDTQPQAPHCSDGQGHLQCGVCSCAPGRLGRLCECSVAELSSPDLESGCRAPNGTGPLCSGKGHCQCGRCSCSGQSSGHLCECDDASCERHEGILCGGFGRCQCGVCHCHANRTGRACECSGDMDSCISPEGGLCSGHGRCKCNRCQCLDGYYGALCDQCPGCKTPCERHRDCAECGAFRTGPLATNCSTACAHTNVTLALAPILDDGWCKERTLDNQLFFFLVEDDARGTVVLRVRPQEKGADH
The data set is described as follows: α4β7-MAdCAM Competition ELISA. It is filed as binding. The following applies: thioether peptide dimers, Table 7; read-out: ELISA A4B7. The method in brief:
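Recombinant human α4β7 captured on nickel-coated plates, then incubated 1 h at room temperature with serially diluted peptides (final top 10 μM) and 10 nM final MAdCAM-1 in Tris pH 7.6 buffer with 1 mM MnCl2 or MgCl2. Bound MAdCAM-1 detected with anti-human IgG1-HRP and TMB, absorbance at 450 nm.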
Background: An ELISA detects its analyte on a solid surface through an enzyme-linked reagent.

Structures are written as SMILES. “And” between values parts separate entries of the source, which are not always exact repeats. Equal entries are not always repeated. *1 amine or outer side, *2 acyl side, *3 side chain or, on linkers, in order; H or OH if unused. Where a SMILES comes first, the peptide text is derived from it. Bridges are numbered along the chain shown (N, C = ends). Roman numbers before positions name the chains, in order. [ ]: non-standard residue; d: D form. Bip = N[C@@H](Cc1ccc(-c2ccccc2)cc1)C(=O)O; Diglycolyl = O=C(COCC(=O)[*:2])[*:1]; NMeR = CN[C@@H](CCCNC(=N)N)C(=O)O; Tic = O=C(O)[C@@H]1Cc2ccccc2CN1; X1 = O=C(c1ccccc1C[*:2])[*:1]; Pen = CC(C)(S)[C@H](N)C(=O)O

Turning to `CC(C)C[C@@H]1NC(=O)[C@H]([C@@H](C)O)NC(=O)[C@H](CC(=O)O)NC(=O)[C@H](CO)NC(=O)[C@H](CCCNC(=N)N)N(C)C(=O)c2ccccc2CSC(C)(C)[C@@H](C(=O)N[C@@H](Cc2ccc(-c3ccccc3)cc2)C(=O)N[C@H](CCC(=O)O)C(=O)N[C@H](CCCCN)C(N)=O)NC1=O` [compound 178] (HELM PEPTIDE1{[meR].S.D.T.L.[Pen].[O=C([C@H](Cc1ccc(-c2ccccc2)cc1)N[*:1])[*:2]].[dE].[dK].[am]}|CHEM1{[O=C(c1ccccc1C[*:2])[*:1]]}$PEPTIDE1,CHEM1,1:R1-1:R1|PEPTIDE1,CHEM1,6:R3-1:R2$$$V2.0), in data set [1], the half-life at 22 μM is more than 3 h; the “SIF (Porcine) (half-life, min)” value is >180 (266), min and >180 min. Also, the IC50 in data set [2] is less than 25 nM.

Regarding `CC(C)C[C@@H]1NC(=O)[C@H]([C@@H](C)O)NC(=O)[C@H](CC(=O)O)NC(=O)[C@H](CO)NC(=O)[C@H](CCCNC(=N)N)N(C)C(=O)c2ccccc2CSC[C@@H](C(=O)N2Cc3ccccc3C[C@H]2C(=O)N[C@H](CCC(=O)O)C(=O)N[C@H](CCCCNC(=O)COCC(=O)NCCCC[C@@H](NC(=O)[C@@H](CCC(=O)O)NC(=O)[C@@H]2Cc3ccccc3CN2C(=O)[C@@H]2CSCc3ccccc3C(=O)N(C)[C@@H](CCCNC(=N)N)C(=O)N[C@@H](CO)C(=O)N[C@@H](CC(=O)O)C(=O)N[C@@H]([C@@H](C)O)C(=O)N[C@@H](CC(C)C)C(=O)N2)C(N)=O)C(N)=O)NC1=O` [compound 184] (I: [NMeR]SDTLC[Tic][dE][dK]-NH2 / II: [NMeR]SDTLC[Tic][dE][dK]-NH2; linker I:9-II:9 via Diglycolyl; linker I:N-I:6, II:N-II:6 via X1), in data set [1], the half-life at 22 μM was more than 3 h and the “SIF (Porcine) (half-life, min)” value is listed as more than 180 min. In addition, the IC50 in data set [2] was less than 25 nM.

As for `CC(C)C[C@@H]1NC(=O)[C@H]([C@@H](C)O)NC(=O)[C@H](CC(=O)O)NC(=O)[C@H](CO)NC(=O)[C@H](CCCNC(=N)N)N(C)C(=O)c2ccccc2CSC(C)(C)[C@@H](C(=O)N[C@@H](Cc2ccccc2)C(=O)N[C@H](CCC(=O)O)C(=O)N[C@H](CCCCNC(=O)COCC(=O)NCCCC[C@@H](NC(=O)[C@@H](CCC(=O)O)NC(=O)[C@H](Cc2ccccc2)NC(=O)[C@H]2NC(=O)[C@H](CC(C)C)NC(=O)[C@H]([C@@H](C)O)NC(=O)[C@H](CC(=O)O)NC(=O)[C@H](CO)NC(=O)[C@H](CCCNC(=N)N)N(C)C(=O)c3ccccc3CSC2(C)C)C(=O)O)C(=O)O)NC1=O` [compound 204] (I: [NMeR]SDTL[Pen]F[dE][dK]-OH / II: [NMeR]SDTL[Pen]F[dE][dK]-OH; linker I:9-II:9 via Diglycolyl; linker I:N-I:6, II:N-II:6 via X1), in data set [1], the half-life was more than 3 h. The IC50 in data set [2] is less than 25 nM.

Compound `CC(C)C[C@@H]1NC(=O)[C@H]([C@@H](C)O)NC(=O)[C@H](CC(=O)O)NC(=O)[C@H](CO)NC(=O)[C@H](CCCNC(=N)N)N(C)C(=O)c2ccccc2CSC[C@@H](C(=O)N2Cc3ccccc3C[C@H]2C(=O)N[C@H](CCC(=O)O)C(=O)N[C@H](CCCCNC(=O)COCC(=O)NCCCC[C@@H](NC(=O)[C@@H](CCC(=O)O)NC(=O)[C@@H]2Cc3ccccc3CN2C(=O)[C@@H]2CSCc3ccccc3C(=O)N(C)[C@@H](CCCNC(=N)N)C(=O)N[C@@H](CO)C(=O)N[C@@H](CC(=O)O)C(=O)N[C@@H]([C@@H](C)O)C(=O)N[C@@H](CC(C)C)C(=O)N2)C(=O)O)C(=O)O)NC1=O` [compound 207] (I: [NMeR]SDTLC[Tic][dE][dK]-OH / II: [NMeR]SDTLC[Tic][dE][dK]-OH; linker I:9-II:9 via Diglycolyl; linker I:N-I:6, II:N-II:6 via X1) gave a half-life in data set [1] of more than 3 h. Also, the IC50 in data set [2] was less than 25 nM.

For `CC(C)C[C@@H]1NC(=O)[C@H]([C@@H](C)O)NC(=O)[C@H](CC(=O)O)NC(=O)[C@H](CO)NC(=O)[C@H](CCCNC(=N)N)N(C)C(=O)c2ccccc2CSC(C)(C)[C@@H](C(=O)N[C@@H](Cc2ccc(-c3ccccc3)cc2)C(=O)N[C@H](CCC(=O)O)C(=O)N[C@H](CCCCNC(=O)COCC(=O)NCCCC[C@@H](NC(=O)[C@@H](CCC(=O)O)NC(=O)[C@H](Cc2ccc(-c3ccccc3)cc2)NC(=O)[C@H]2NC(=O)[C@H](CC(C)C)NC(=O)[C@H]([C@@H](C)O)NC(=O)[C@H](CC(=O)O)NC(=O)[C@H](CO)NC(=O)[C@H](CCCNC(=N)N)N(C)C(=O)c3ccccc3CSC2(C)C)C(=O)O)C(=O)O)NC1=O` [compound 208] (I: [NMeR]SDTL[Pen][Bip][dE][dK]-OH / II: [NMeR]SDTL[Pen][Bip][dE][dK]-OH; linker I:9-II:9 via Diglycolyl; linker I:N-I:6, II:N-II:6 via X1), the half-life in data set [1] is more than 3 h. The IC50 in data set [2] was less than 25 nM.

`CC(C)C[C@@H]1NC(=O)[C@H]([C@@H](C)O)NC(=O)[C@H](CC(=O)O)NC(=O)[C@H](CO)NC(=O)[C@H](CCCNC(=N)N)N(C)C(=O)c2ccccc2CSC(C)(C)[C@@H](C(=O)N[C@@H](Cc2c[nH]c3ccccc23)C(=O)N[C@H](CCC(=O)O)C(=O)N[C@H](CCCCNC(=O)COCC(=O)NCCCC[C@@H](NC(=O)[C@@H](CCC(=O)O)NC(=O)[C@H](Cc2c[nH]c3ccccc23)NC(=O)[C@H]2NC(=O)[C@H](CC(C)C)NC(=O)[C@H]([C@@H](C)O)NC(=O)[C@H](CC(=O)O)NC(=O)[C@H](CO)NC(=O)[C@H](CCCNC(=N)N)N(C)C(=O)c3ccccc3CSC2(C)C)C(=O)O)C(=O)O)NC1=O` [compound 209] (I: [NMeR]SDTL[Pen]W[dE][dK]-OH / II: [NMeR]SDTL[Pen]W[dE][dK]-OH; linker I:9-II:9 via Diglycolyl; linker I:N-I:6, II:N-II:6 via X1) returned a half-life in data set [1] of more than 3 h. For the same compound, the IC50 in data set [2] was less than 25 nM.

Broadly, the half-life is how long it takes for the measured level to halve.
